Results on 13 compounds are retold here after patent US4965264A, “Thienocinnoline compounds and their pharmaceutical use” (Yoshitomi Pharmaceutical Industries, Ltd., priority 1987, dated 1990).

Assay [1] has as its system peritoneal macrophages. Put plainly: Action on macrophage-phagocytosis. It is filed as cell-based. Conditions: Rattus norvegicus, read-out: potentiating action on macrophage phagocytosis, relative ratio of phagocytic macrophages. How it is done:
(§1) ICR mice weighing 30-35 g were intraperitoneally administered with glycogen. Three hours later, the leukocytes in the abdominal cavity were collected. A leukocyte suspension of 5×10^6 cells/ml was prepared and the test compound was added to 200 μl of the cell suspension, followed by further addition of 100 μl of mouse serum and 100 μl of dead yeast (1×10^8 particles/ml) thereto. The mixture was incubated at 37° C. for 20 minutes. By observing more than 200 leukocytes in the reaction mixture under a microscope (400 magnifications), the number of the leukocytes which had phagocytosed at least one dead yeast was counted. The ratio of the number of phagocytic leukocytes treated with 0.1 μM of the test compounds relative to that of phagocytic leukocytes of controls was estimated. The potentiating actions on phagocytosis of the compounds of Examples 1 and 9 were 160% and 158% respectively.
Casein sodium was intraperitoneally administered to rats. Three to four days later, peritoneal macrophages were collected. The phagocytosis was examined, and the relative ratio of phagocytic macrophages of the rat treated with 0.1 μM of the test compound was calculated in the same manner as Experimental Example 4. The potentiating actions on phagocytosis of the compounds of Examples 2, 8 and 10 were 146%, 167% and 148% respectively.

The subject of assay [2] is E. coli 0-111 strain. Put plainly: Infection-protective action (E. coli infection in cyclophosphamide-treated mice). It is filed as in vivo, mouse (male ICR). Conditions: 3 mg/kg orally for 3 days; 7 days after E. coli inoculation; cyclophosphamide 200 mg/kg i.p. How it is done: Cyclophosphamide was intraperitoneally administered to male ICR mice (weighing 23-27 g, aged 5 weeks) at the dosage of 200 mg/kg. Four days later, […] of E. coli 0-111 strain was subcutaneously inoculated into the mice (Controls). The test compounds (3 mg/kg) were orally administered to the mice for 3 days from the following day of the administration of cyclophosphamide. The survival rate of the treated mice relative to controls 7 days after the inoculation of E. coli was compared.

Assay [3] concerns the target benzodiazepine receptors. Nature of the assay: Displacement of tritiated diazepam, benzodiazepine receptor binding (synaptosome fraction of cerebral cortex). On the set-up: species or system rat (male Wistar). Conditions: displacement of 2 nM tritiated diazepam, rat cortex synaptosomes, pH 7.4, 0°C, 20 min; read-out: Affinity to BZP Receptors, Ki. Here is the method:
The experiment for specific affinity to benzodiazepine receptors was carried out in accordance with the method described in Life Science, vol. 20, 2101 (1977).
The crude cyhaptosome fraction was isolated from the cerebral cortex of male Wistar rats aged 9-10 weeks, and was suspended in 50 mM Tris-hydrochloric acid buffer solution (pH 7.4) containing 120 mM sodium chloride and 5 mM potassium chloride. These suspensions were used for the experiment.
The test compounds in several different concentrations and tritiated diazepam (in final concentration of 2 nM) were added to the synaptosome suspensions, and the mixtures were incubated at 0° C. for 20 minutes. These suspensions were filtered with Whatman GF/B glassfiber filters. After the filters were washed with the above-mentioned buffer solution, the radioactivity left on the filters was measured with the use of a liquid scintillation counter.
Specific binding was determined by subtracting binding in the presence of 10^-6 M unlabeled diazepam from total binding.
According to the foregoing experimental method, the binding force to benzodiazepine receptors of the compound of the present invention is evaluated from its displacement ability for tritiated diazepam at its binding site, which is represented by Ki value (nM).

The test system of assay [4] is amnesia induced by electroconvulsive shock. Put plainly: Action on experimental amnesia (electroconvulsive shock, step-through passive avoidance). It is filed as in vivo, mouse (male ddY). Conditions: Mus musculus, ip; i.p. immediately after ECS; latency 3 h after acquisition trial; read-out: Anti-amnesia Action, MED. Here is the method: The experiment was carried out in accordance with the method described by Sara in Psychopharmacologia, vol. 36, 59 (1974). Male ddY mice weighing 23-26 g, 20 animals per group, were used, and a step-through passive avoidance reflex practicing box consisting of illuminated chamber and dark chamber was used as the experimental apparatus. As the acquisition trial of passive avoidance reflex, the animals were placed in the illuminated chamber and then allowed to enter the dark one. As soon as the animals entered the dark chamber, footshock was applied to the mouse. Experimental amnesia was caused by applying electroconvulsive shock [ECS]soon after the acquisition trial. As the experimental trial, the animals were placed in the illuminated chamber three hours after the acquisition trial, and the time which the animals took to enter the dark chamber (latency) was measured until 600 seconds. The test compounds were administered intraperitoneally (i.p.) immediately after the application of ECS. For the evaluation of the effects, antagonistic actions against the reduction in latency, caused by the application of ESC were examined.

Assay [5] deals with leukocytes. Put plainly: Action on leukocyte-phagocytosis. It is filed as cell-based, mouse (ICR). The note with it: Mus musculus, 20 min, 37° C., read-out: potentiating action on leukocyte phagocytosis, ratio of phagocytic leukocytes relative to controls. Here is the method:
The experiment was performed in accordance with the method by Stossel et al. [Journal of Clinical Investigation, vol. 51, 615 (1972)].
as §1

The Ki is the dissociation constant of the complex between target and ligand, obtained from inhibition or displacement.

In the case of `Cc1ccc(N2N=C3c4ccsc4CCC3CC2=O)cc1` (stereo not drawn) [Example 8, 8-(4-methylphenyl)-4,5,5a,6,7,8-hexahydrothieno[2,3-h]cinnolin-7-one], in assay [1], the activity at 0.1 µM came out at 167%. Also, in assay [2], the “effect on survival rate relative to controls” value was “significant increasing effects on survival rate”.
For the compound `COc1ccc(N2N=C3c4cc(Br)sc4CCC3CC2=O)cc1` (stereo not drawn) [Example 11, 2-bromo-8-(4-methoxyphenyl)-4,5,5a,6,7,8-hehahydrothieno[2,3-h]cinnolin-7-one], the Ki in assay [3] was 4.5 nM. Also, in assay [2], the “effect on survival rate relative to controls” value is recorded as “significant increasing effects on survival rate”.
As to `O=C1CC2CCc3sccc3C2=NN1c1ccccn1` (stereo not drawn) [Example 3, 8-(2-pyridyl)4,5,5a,6,7,8-hexahydrothieno[2,3-h]cinnolin-7-one], the Ki in assay [3] is 280 nM. The minimal effective dose in assay [4] came out at 0.1 mg/kg.
The matching figures for `O=C1CC2CCc3sc(Br)cc3C2=NN1c1ccccn1` (stereo not drawn) [Example 7, 2-bromo-8-(2-pyridyl)-4,5,5a,6,7,8-hexahydrothieno[2,3-h]cinnolin-7-one]: 60 nM and less than 0.5 mg/kg.
The matching figures for `COc1ccc(N2N=C3c4cc(C)sc4CCC3CC2=O)cc1` (stereo not drawn) [Example 14, 2-Methyl-8-(4-methoxyphenyl)-4,5,5a,6,7,8-hexahydrothieno[2,3-h]cinnolin-7-one]: 5.1 nM and 0.25 mg/kg.
With `COc1ccc(N2N=C3c4ccsc4CCC3CC2=O)cc1` (stereo not drawn) [Example 9, 8-(4-methoxyphenyl)4,5,5a,6,7,8-hexahydrothieno[2,3-h]cinnolin-7-one], in assay [3], the Ki worked out at 12 nM. In addition, the minimal effective dose in assay [4] was 0.5 mg/kg. Moreover, the activity at 0.1 µM in assay [5] was 158%.
`Cc1cc2c(s1)CCC1CC(=O)N(c3ccccc3)N=C21` (stereo not drawn) [Example 5, 2-methyl-8-phenyl-4,5,5a,6,7,8-hexahydrothieno[2,3-h]cinnolin-7-one]: in assay [3], the inhibition constant Ki was determined as 18 nM. Also, the minimal effective dose in assay [4] worked out at 0.25 mg/kg.
On to `Cc1ccc(N2N=C3c4cc(C)sc4CCC3CC2=O)cc1` (stereo not drawn) [Example 24, 2-Methyl-8-(4-methylphenyl)-4,5,5a,6,7,8-hexahydrothieno[2,3-h]cinnolin-7-one], for which the inhibitory constant (Ki) in assay [3] is 10 nM.
Take `Cc1ccc(N2N=C3c4cc(Br)sc4CCC3CC2=O)cc1` (stereo not drawn) [Example 10, 2-bromo-8-(4-methylphenyl)-4,5,5a,6,7,8-hexahydrothieno[2,3-h]cinnolin-7-one]: in assay [3], the inhibition constant (Ki) was found to be 7 nM. The activity at 0.1 µM in assay [1] turned out to be 148%.
For the compound `O=C1CC2CCc3sc(Br)cc3C2=NN1c1ccc(Cl)cc1` (stereo not drawn) [Example 6, 2-bromo-8-(4-chlorophenyl)-4,5,5a,6,7,8-hexahydrothieno[2,3-h]cinnolin-7-one], the Ki in assay [3] was found to be 12 nM.
With `O=C1CC2CCc3sc(Br)cc3C2=NN1c1ccccc1` (stereo not drawn) [Example 4, 2-bromo-8-phenyl-4,5,5a,6,7,8-hexahydrothieno[2,3-h]-cinnolin-7-one], the inhibitory constant (Ki) in assay [3] was 30 nM. Also, in assay [4], the minimal effective dose was 0.5 mg/kg.
`O=C1CC2CCc3sccc3C2=NN1c1ccc(Cl)cc1` (stereo not drawn) [Example 2, 8-(4-chlorophenyl)4,5,5a,6,7,8-hexahydrothieno[2,3-h]cinnolin-7-one]: in assay [1], the activity at 0.1 µM was 146%. Besides, in assay [2], the “effect on survival rate relative to controls” value is “significant increasing effects on survival rate”.
For `O=C1CC2CCc3sccc3C2=NN1c1ccccc1` (stereo not drawn) [Example 1, 8-phenyl-4,5,5a,6,7,8-hexahydrothieno[2,3h]cinnolin-7-one], the activity at 0.1 µM in assay [5] stood at 160%.
